Reference: patent US20170281650A1 (priority 2014, published 2017)
Entries after “also recorded” stand apart in the source; their conditions may differ. Like-named read-outs stand apart in the source and are kept apart here.

Key:
[1] = system: liver X receptor alpha (LXRα); experiment: Immunoblot of hepatic LXRα protein mass; assay type: in vivo, Golden Syrian hamsters; conditions: western blot, 6 weeks
Golden Syrian hamsters [2] = assay type: in vivo; conditions: 6 weeks
Golden Syrian hamsters [3] = experiment: Analysis of fecal neutral and acidic sterols in hamster hyperlipidemia model; assay type: in vivo; conditions: for increase in excretion of cholesterol and its microbial derivatives compared with the HCD control: feces
Method: (§1) Six different experimental diets were prepared by mixing the ingredients according to Table 1 and blending these mixtures with a gelatin solution (20 g/L) in a ratio of 200 g composition per liter of solution. Once the gelatin had set, the product were cut into pieces of approximately 10 g cubes and stored frozen at −80° C. until use.
(§2) After this acclimation period the hamsters were randomly divided into six test groups and fed one of the experimental diets for another six weeks.
Neutral and acidic sterols in the feces were quantified by a standard method using gas chromatography (GC). In brief, the total fecal sample (300 mg) from each hamster was freeze-dried, ground and well mixed. 0.3 mg of 5α-cholestanol was added as an internal standard for quantification of neutral sterols by GC analysis. The remaining aqueous layer was saved for the analysis of acidic sterols.

LDL receptor [4] = experiment: mRNA of hepatic LDL receptor; assay type: in vivo, Golden Syrian hamsters; conditions: liver, 6 weeks
Golden Syrian hamsters [5] = experiment: Analysis of plasma lipoproteins (TC, HDL, non-HDL cholesterol, TG) in hamster hyperlipidemia model; assay type: in vivo; conditions: for plasma TC compared with the HCD group / plasma TG compared with the HCD group / plasma non-HDL-C compared with the HCD group: end of week 6; for dose dependence of the cholesterol-lowering effect: 0.2% versus 0.3% in diet
Method: as §1
(§3) 46 male Golden Syrian hamsters (n=46; body weights=110-120 g) were housed in wire-bottomed cages at 23° C. in an animal room with 12-hour light-dark cycle (one per cage). All hamsters were maintained on a standard cereal based diet for two weeks.
as §2
Plasma total cholesterol (TC) and triacylglycerols (TG) were quantified using commercial enzymatic kits from Infinity (Waltham, Mass., U.S.A) and Stanbio Laboratories (Boerne, Tex., U.S.A.), respectively. To determine high-density lipoprotein cholesterol (HDL), low-density lipoprotein cholesterol (LDL) and very low-density lipoprotein cholesterol (VLDL) were first precipitated with a commercial kit (Stanbio) containing phosphotungstic acid and magnesium chloride. HDL cholesterol in supernatant phase was measured similarly as done for TC. Non-HDL cholesterol was calculated by deducing HDL cholesterol from TC.

[6] = Food intake, body and organ weight in hamster hyperlipidemia model; assay type: in vivo, Golden Syrian hamsters; conditions: 6 weeks
Method: as §1, §3, §2

Golden Syrian hamsters [7] = experiment: Analysis of liver cholesterol and dihydrocholesterol in hamster hyperlipidemia model; assay type: in vivo; conditions: 6 weeks
Method: as §1, §2
Cholesterol content in organs was determined by a standard method. Cholesterol in the tissue sample was calculated according to the amount of internal standard 5α-cholestanol added.

LDL receptor [8] = experiment: Immunoblot of hepatic LDL receptor protein mass; assay type: in vivo, Golden Syrian hamsters; conditions: liver, western blot; 0.3% in high cholesterol diet, 6 weeks
[9] = 0.2% in high cholesterol diet, week 6
[10] = 0.3% in high cholesterol diet, week 6

Structure (SMILES) | LXRα protein mass ([1]; 0.2% in high cholesterol diet) | LXRα protein mass ([1]; 0.3% in high cholesterol diet) | atherosclerotic plague compared with the HCD control group (Golden Syrian hamsters [2]; 0.2% in high cholesterol diet) | atherosclerotic plague compared with the HCD control group (Golden Syrian hamsters [2]; 0.3% in high cholesterol diet) | total fecal neutral sterols excreted compared with the controls (Golden Syrian hamsters [3]; [9]) | total fecal neutral sterols excreted compared with the controls (Golden Syrian hamsters [3]; [10]) | mRNA level of the LDL receptor compared with the HCD control (LDL receptor [4]; 0.2% in high cholesterol diet) | mRNA level of the LDL receptor compared with the HCD control (LDL receptor [4]; 0.3% in high cholesterol diet) | plasma TC compared with the HCD group (Golden Syrian hamsters [5]; 0.2% in high cholesterol diet) | plasma TG compared with the HCD group (Golden Syrian hamsters [5]; 0.2% in high cholesterol diet) | plasma non-HDL-C compared with the HCD group (Golden Syrian hamsters [5]; 0.2% in high cholesterol diet) | dose dependence of the cholesterol-lowering effect (Golden Syrian hamsters [5]) | plasma TC compared with the HCD group (Golden Syrian hamsters [5]; 0.3% in high cholesterol diet) | plasma TG compared with the HCD group (Golden Syrian hamsters [5]; 0.3% in high cholesterol diet) | plasma non-HDL-C compared with the HCD group (Golden Syrian hamsters [5]; 0.3% in high cholesterol diet) | epididymal fat pad weight compared with the control ([6]; 0.2% in high cholesterol diet) | kidney weight compared with HCD ([6]; 0.2% in high cholesterol diet) | liver weight compared with the HCD group ([6]; 0.2% in high cholesterol diet) | kidney weight compared with HCD ([6]; 0.3% in high cholesterol diet) | liver weight compared with the HCD group ([6]; 0.3% in high cholesterol diet) | also measured
CC(C)CCC[C@@H](C)[C@H]1CC[C@H]2[C@@H]3CC[C@H]4C[C@@H](O)CC[C@]4(C)[C@H]3CC[C@]12C [DHC, dihydrocholesterol] | up-regulated LXRα slightly | up-regulated LXRα slightly | significantly lesser | significantly lesser | greater | greater | up-regulated | up-regulated | significantly lower; also recorded: significantly reduces | significantly lower; also recorded: significantly reduces | significantly lower | not dose-dependent | significantly lower; also recorded: significantly reduces | significantly lower; also recorded: significantly reduces | significantly lower | decreased | no significant difference | decreased | reduced | decreased | excretion of total neutral sterols compared with corresponding SA and SB (β-sitosterol) groups (Golden Syrian hamsters [3]; 0.2% and 0.3% diets, week 6): greater; increase in excretion of cholesterol and its microbial derivatives compared with the HCD control (Golden Syrian hamsters [3]; 0.2% in high cholesterol diet): 11.5 fold; increase in excretion of cholesterol and its microbial derivatives compared with the HCD control (Golden Syrian hamsters [3]; 0.3% in high cholesterol diet): 19.1 fold; reducing serum TG, compared with β-sitosterol (Golden Syrian hamsters [5]; 0.2% and 0.3% diets): more effective than β-sitosterol; Body Weight Final ([6]; 0.2% in high cholesterol diet): 115.38 ± 9.02 g; Body Weight Final ([6]; 0.3% in high cholesterol diet): 115.43 ± 7.00 g; DHC accumulated in the liver (Golden Syrian hamsters [7]; 0.2% DHC in high cholesterol diet (DA)): about 2 mg DHC/g liver; reducing the liver cholesterol, compared with SA and SB (β-sitosterol) (Golden Syrian hamsters [7]; 0.2% and 0.3% diets): more effective; decrease in liver cholesterol (Golden Syrian hamsters [7]; 0.2% in high cholesterol diet): 67.5%; hepatic cholesterol levels compared with the HCD control (Golden Syrian hamsters [7]; 0.2% in high cholesterol diet): significantly lower; DHC accumulated in the liver (Golden Syrian hamsters [7]; 0.3% DHC in high cholesterol diet (DB)): about 2 mg DHC/g liver; decrease in liver cholesterol (Golden Syrian hamsters [7]; 0.3% in high cholesterol diet): 71.5%; hepatic cholesterol levels compared with the HCD control (Golden Syrian hamsters [7]; 0.3% in high cholesterol diet): significantly lower
CC[C@H](CC[C@@H](C)[C@H]1CC[C@H]2[C@@H]3CC=C4C[C@@H](O)CC[C@]4(C)[C@H]3CC[C@]12C)C(C)C [β-sitosterol, reference compound] | significantly up-regulated | significantly up-regulated | significantly lesser | significantly lesser | greater | greater | up-regulated | up-regulated | significantly lower | significantly lower | significantly lower | dose-dependent | significantly lower | significantly lower | significantly lower | decreased | reduced | decreased | no significant difference | decreased | reducing the formation of atherosclerotic plague, compared with DA and DB (DHC) diets (Golden Syrian hamsters [2]; 0.2% and 0.3% diets): more effective; excretion of acidic sterols compared with corresponding DA and DB (DHC) groups (Golden Syrian hamsters [3]; 0.2% and 0.3% diets, week 6): greater; reducing plasma TC, compared with DHC (Golden Syrian hamsters [5]; [10]): more effective than DHC; epididymal fat pad weight compared with the control ([6]; 0.3% in high cholesterol diet): decreased; Body Weight Final ([6]; 0.2% in high cholesterol diet): 118.43 ± 13.74 g; Body Weight Final ([6]; 0.3% in high cholesterol diet): 112.00 ± 8.05 g; LDL receptor protein (LDL receptor [8]): significantly up-regulated; decrease in liver cholesterol (Golden Syrian hamsters [7]; 0.2% in high cholesterol diet): 30.5%; hepatic cholesterol levels compared with the HCD control (Golden Syrian hamsters [7]; 0.2% in high cholesterol diet): significantly lower; decrease in liver cholesterol (Golden Syrian hamsters [7]; 0.3% in high cholesterol diet): 38.4%; hepatic cholesterol levels compared with the HCD control (Golden Syrian hamsters [7]; 0.3% in high cholesterol diet): significantly lower
